Assay results from US20150005288A1, “SUBSTITUTED PHENYLIMIDAZOPYRAZOLES AND USE THEREOF” (Bayer Intellectual Property GmbH, priority 2012, published 2015).

What was measured:
[1] = target: T1, intracellular domain of human Tie2 (GST fusion protein) (Homo sapiens, UniProt Q02763); experiment: Tie2 kinase assay (Tie2-TR-FRET); type: biochemical; conditions: ATP concentration 1 mM, in some cases means of several independent determinations
T1 construct: intracellular domain of human Tie2 (amino acids 776-1124); made in house; host or cells: Baculovirus-infected insect cells (Hi5)
How it was run: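 GST fusion of human Tie2 intracellular domain (aa 776-1124, Hi5-expressed), ~30 ng/ml, pre-incubated 15 min with compound, then 1 mM ATP and 1 μM biotinylated peptide, 60 min at 22 °C, pH 7. TR-FRET (Eu anti-phosphotyrosine/streptavidin-XL665, 665/620 nm ratio). […] 20 μM–0.073 nM in duplicate; IC50 by 4-parameter fit.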

endogenous Tie2 receptor = target: T2, endogenous Tie2 receptor (Homo sapiens, UniProt Q02763); experiment: Tie2-pTyr-ELISA: autophosphorylation of endogenous Tie2 receptor in HUVEC; type: cell-based; conditions: autophosphorylation elevated by sodium orthovanadate (4 mM), Tie2/phosphotyrosine sandwich ELISA, from 2-7 independent measurements
T2 construct: the endogenous Tie2 receptor; host or cells: HUVEC (human umbilical vein endothelial cells)
Method: The cellular activity of the compounds according to the invention as Tie2 kinase inhibitors was determined in human endothelial cells (HUVEC) by measuring the inhibition of the autophosphorylation, elevated by treatment with sodium orthovanadate, of the endogenous Tie2 receptor by means of a Tie2/phosphotyrosine sandwich ELISA.
Human endothelial cells (human umbilical vein endothelial cells, HUVEC) were obtained from Cellsystems (FC-0003), cultured in Vasculife VEGF complete medium (Cellsystems, LL-1020) with 2% foetal calf serum (FCS) at 37° C./5% CO2 and used for Tie2-ELISA measurements up to passage 8.
HUVEC were plated in a culture volume of 100 μl of Vasculife VEGF complete medium at a cell density of 30 000 cells per well in transparent collagen-coated 96-well cell culture plates (Falcon, #353075) and incubated in an incubation cabinet at 37° C./5% CO2 overnight. The test substances dissolved in DMSO were used to prepare in each case one dilution series in Vasculife VEGF low-serum medium [basal medium with LifeFactors (Cellsystems, LM-0002), without FCS, with 0.1% BSA] without sodium orthovanadate and one dilution series in Vasculife VEGF low-serum-medium with 8 mM sodium orthovanadate in the desired concentrations in the range from 10 pM to 10 μM, the final DMSO concentration being 1%. After removal of the complete medium, 100 μl per well of the dilute substances in low-serum medium without sodium orthovanadate were pipetted onto the cells, and the plates were incubated in an incubation cabinet at 37° C./5% CO2 for 10 min. A further 100 μl of the same substance dilution in low-serum medium with 8 mM sodium orthovanadate were then pipetted into the respective well and the cells were incubated in a volume of now 200 μl in the presence of 4 mM sodium orthovanadate at the desired substance concentration in an incubation cabinet at 37° C./5% CO2 for a further 20 min. The cell supernatant of the plates was then removed and the cells were washed once with 250 μl per well of cold PBS which contained 4 mM sodium orthovanadate. 120 μl of Duschl lysis buffer [50 mM HEPES pH 7.2, 150 mM NaCl, 1 mM MgCl2, 10% glycerol, 1.5% Triton X-100, 4 mM sodium orthovanadate, 250 μl S-PIC phosphatase inhibitor cocktail 2 (Sigma, P5726) and 1 tablet of Complete proteinase inhibitor mixture (Roche, #1836145) per 10 ml] were then added to the cells in each well. The plates were shaken briefly and then incubated on ice for 20 min, and the lysates in the cell culture plates were then frozen at −80° C. for at least 30 min.
For measuring the autophosphorylation of the endogenous Tie2 receptor in the cell lysates prepared, a self-prepared anti-Tie2 antibody directed against the N-terminus of the Tie-2 receptor (1.09 mg/ml) and an HRP-coupled anti-phosphotyrosine antibody (Sigma, A4595, clone pY-20) were used. White 96-well ELISA plates (Lumitrac600, Greiner, #655074) were incubated with 100 μl per well of a 1:1000 dilution of the anti-Tie2 antibody in coating buffer [15 mM Na2CO3, 35 mM NaHCO3, pH 9.6] with shaking at 4° C. overnight. The coated ELISA plates were washed three times with 250 μl PBST buffer [0.1% Tween-20 in PBS], the wells were blocked with 250 μl 3% BSA in PBST buffer with shaking at RT for 1-6 h and washed three more times with 250 μl PBST buffer. From the cell lysate plates thawed in the fridge, in each case 100 μl of lysate were transferred into the coated wells of the ELISA plates, and the plates were incubated with shaking at 4° C. overnight. The plates were washed three times with in each case 250 μl of PBST buffer, and 100 μl of a 1:5000 dilution of the anti-phosphotyrosine HRP antibody in 3% Prionex (Calbiochem, #529600) in PBST were then pipetted into each well and the plates were incubated with shaking and protected from light at 4° C. overnight. […]

T1 sequence (Q02763 776-1124): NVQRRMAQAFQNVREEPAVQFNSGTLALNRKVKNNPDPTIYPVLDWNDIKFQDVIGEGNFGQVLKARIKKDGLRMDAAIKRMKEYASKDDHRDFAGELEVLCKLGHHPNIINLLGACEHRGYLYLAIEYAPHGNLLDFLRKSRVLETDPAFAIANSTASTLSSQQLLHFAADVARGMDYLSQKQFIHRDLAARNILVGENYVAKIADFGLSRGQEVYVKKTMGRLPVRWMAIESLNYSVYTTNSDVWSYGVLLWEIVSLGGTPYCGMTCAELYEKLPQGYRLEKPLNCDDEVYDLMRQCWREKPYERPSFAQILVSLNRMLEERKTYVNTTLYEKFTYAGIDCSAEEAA
T2 sequence (Q02763 23-1124): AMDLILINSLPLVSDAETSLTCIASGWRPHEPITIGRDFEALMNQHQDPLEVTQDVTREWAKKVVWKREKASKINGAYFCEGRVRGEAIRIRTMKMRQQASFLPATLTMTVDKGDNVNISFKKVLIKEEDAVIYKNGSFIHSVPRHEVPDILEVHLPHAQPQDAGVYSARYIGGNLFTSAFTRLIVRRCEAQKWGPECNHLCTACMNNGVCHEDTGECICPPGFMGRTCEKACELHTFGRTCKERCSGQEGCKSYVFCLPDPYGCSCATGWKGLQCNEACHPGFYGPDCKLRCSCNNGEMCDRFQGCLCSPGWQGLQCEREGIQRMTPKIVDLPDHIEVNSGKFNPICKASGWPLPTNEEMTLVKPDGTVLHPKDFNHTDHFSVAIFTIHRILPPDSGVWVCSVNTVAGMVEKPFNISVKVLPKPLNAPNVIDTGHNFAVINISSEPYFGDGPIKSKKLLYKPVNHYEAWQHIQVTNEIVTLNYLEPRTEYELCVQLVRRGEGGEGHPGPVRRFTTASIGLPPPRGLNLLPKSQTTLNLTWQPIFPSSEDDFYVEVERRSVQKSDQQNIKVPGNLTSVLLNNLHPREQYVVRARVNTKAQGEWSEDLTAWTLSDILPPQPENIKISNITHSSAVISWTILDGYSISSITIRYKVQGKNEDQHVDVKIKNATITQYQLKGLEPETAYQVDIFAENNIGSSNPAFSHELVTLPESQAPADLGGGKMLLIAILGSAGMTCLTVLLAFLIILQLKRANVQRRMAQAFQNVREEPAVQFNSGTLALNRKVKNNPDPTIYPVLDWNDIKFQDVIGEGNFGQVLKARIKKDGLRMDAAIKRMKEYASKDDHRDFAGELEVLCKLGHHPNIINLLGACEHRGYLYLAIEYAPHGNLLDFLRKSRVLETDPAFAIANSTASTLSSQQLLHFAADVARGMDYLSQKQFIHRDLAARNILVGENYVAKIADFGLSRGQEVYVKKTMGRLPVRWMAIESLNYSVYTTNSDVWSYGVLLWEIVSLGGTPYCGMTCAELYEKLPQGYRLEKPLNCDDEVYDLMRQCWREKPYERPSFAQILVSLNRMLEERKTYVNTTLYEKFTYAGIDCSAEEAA

| SMILES | IC50 [1] | IC50 (endogenous Tie2 receptor) |
| --- | --- | --- |
| Cc1cc(NC(=O)c2cc(C#N)cc(S(F)(F)(F)(F)F)c2)cc(-n2ccn3nc(-c4cccnc4)cc23)c1C [Example 102, 3-Cyano-N-{3,4-dimethyl-5-[6-(pyridin-3-yl)-1H-imidazo[1,2-b]pyrazol-1-yl]phenyl}-5-(pentafluoro-λ^6-sulphanyl)benzamide] | 19 nM | 18 nM |
| Cc1cc(C)c(-n2ccn3nc(-c4cccnc4)cc23)cc1NC(=O)c1cc(F)cc(S(F)(F)(F)(F)F)c1 [Example 107, N-{2,4-Dimethyl-5-[6-(pyridin-3-yl)-1H-imidazo[1,2-b]pyrazol-1-yl]phenyl}-3-fluoro-5-(pentafluoro-λ^6-sulphanyl)benzamide] | 0.6 nM | 0.9 nM |
| COCc1cc(C(=O)Nc2cc(-n3ccn4nc(-c5cccnc5)cc34)c(C)cc2C)cc(S(F)(F)(F)(F)F)c1 [Example 112, N-{2,4-Dimethyl-5-[6-(pyridin-3-yl)-1H-imidazo[1,2-b]pyrazol-1-yl]phenyl}-3-(methoxymethyl)-5-(pentafluoro-λ^6-sulphanyl)benzamide] | 0.7 nM | 1.4 nM |
| Cc1cc(C)c(-n2ccn3nc(-c4cccnc4)cc23)cc1NC(=O)c1cc(C#N)nc(C(C)(C)C)c1 [Example 116, 2-tert-Butyl-6-cyano-N-{2,4-dimethyl-5-[6-(pyridin-3-yl)-1H-imidazo[1,2-b]pyrazol-1-yl]phenyl}-isonicotinamide] | 0.5 nM | 2.9 nM |
| Cc1cc(Cl)c(-n2ccn3nc(-c4cccnc4)cc23)cc1NC(=O)c1cccc(S(F)(F)(F)(F)F)c1 [Example 157, N-{4-Chloro-2-methyl-5-[6-(pyridin-3-yl)-1H-imidazo[1,2-b]pyrazol-1-yl]phenyl}-3-(pentafluoro-λ^6-sulphanyl)benzamide] | 0.5 nM | 1 nM |
| Cc1ccc(NC(=O)c2cc(C#N)cc(S(F)(F)(F)(F)F)c2)cc1-n1ccn2nc(-c3cnccn3)cc12 [Example 162, 3-Cyano-N-{4-methyl-3-[6-(pyrazin-2-yl)-1H-imidazo[1,2-b]pyrazol-1-yl]phenyl}-5-(pentafluoro-λ^6-sulphanyl)benzamide] | 28 nM | 8.9 nM |
